Reference: paper PMC9475137, “Sesquiterpene lactones from Artemisia vulgaris L. as potential NO inhibitors in LPS-induced RAW264.7 macrophage cells” (Frontiers in Chemistry, 2022)
“Also recorded” adds a separate entry of the source.

Tests used:
Assay type in all cases: cell-based
[1] = Cytotoxicity against RAW264.7 cells (CCK8); conditions: mouse, 24 h incubation, 3.125–200 μM
Description: For the cytotoxicity assay, RAW 264.7 cells were grown in DMEM containing 10% FBS and cultured at 37°C. Then, the cells were seeded in a 96-well plate (1 × 10^4 cells/well) before the cells were incubated for 24 h in various concentrations of compounds (3.125–200 μM). Cell viability was examined using a CCK8-kit. The CCK8 solution (5 µl) was added to each well and incubated for 1–2 h at 37°C. The OD value at 450 nm was quantified by Graphpad software, and the corresponding 50% cytotoxic concentration (CC50) of the compounds was subsequently obtained.

[2] = system: NO production in LPS-induced RAW264.7 cells; experiment: Inhibition of NO production in LPS-induced RAW264.7 macrophages (Griess reagent); conditions: for IC50: Mus musculus, RAW264.7, pretreated 1 h with compounds (0.25–4 μM), LPS 1 μg/ml 18 h, Mean ± SD, read-out: IC50 (μM), NO inhibition toward LPS-induced RAW264.7 cells
Description: The level of accumulated nitrite in the culture media reflected the level of NO using the classic Griess reagent (Beyotime, Jiangsu, China). The RAW264.7 cells were seeded in a 96-well plate with a 6 ×10^4 cells/ml density for the indicated time. Then, the cells were pretreated for 1 h with test compounds (0.25–4 μM), followed by stimulation with LPS (1 μg/ml) for 18 h. Finally, 50 ul of the culture supernatant was mixed with an equal amount of the Griess reagent, and the optical densities at 570 nm were read using a microplate reader. The nitric oxide concentration of the samples was calculated according to the standard curve.

[3] = system: COX-2; experiment: COX-2 expression in LPS-induced RAW264.7 cells (quantitative real-time PCR and Western blotting); conditions: LPS-induced RAW264.7 macrophages; qPCR and Western blotting; compound 1 at 4 μM compared with dexamethasone
Description: (§1) RAW264.7 cells were seeded in a six-well plate (10 × 10^5 cells/well) for the indicated time. Cells were pretreated with compound 1 (0.5, 1, and 4 μM) for 1 h and then stimulated with LPS (1 ug/mL) for 18 h. Total cellular RNA was extracted with Trizol reagent (TIANGEN, Beijing, China). One microgram of RNA per sample was reverse-transcribed into cDNA using the PrimeScript RT Reagent Kit (TAKARA, Dalian, China). qPCR assays were performed by the CFX96 Touch Real-Time PCR Detection System (Bio-Rad). The following primers were used: iNOS (forward, 5′-AAACCCCAGGTGCTATTCCC-3′; reverse, 5′-TGGGTCCTCTGGTCAAACTC-3′), COX-2 (forward, 5′-ATTCCAAACCAGCAGACTCATA-3′; reverse, CTTGAGTTTGAAGTGGTAACCG-3′), and GAPDH (forward, 5′- GTCATTGAGAGCAATGCCAG-3′; reverse, 5′-GTGTTCCTACCCCCAATGTG-3′). […]
(§2) RAW264.7 cells with the indicated treatment were harvested and treated in a RIPA lysis buffer (Beyotime, Shanghai, China) containing a protease and phosphatase inhibitor cocktail (Beyotime, Shanghai, China) to obtain the lysates. Then, the total proteins were measured using the bicinchoninic acid (BCA) protein assay kit (Beyotime, Shanghai, China) and regulated by a loading buffer and the RIPA lysis buffer. […] Finally, the protein bands were detected using the ImageJ software (Bio-Rad, Hercules, CA, United States).

[4] = system: iNOS; experiment: iNOS expression in LPS-induced RAW264.7 cells (quantitative real-time PCR and Western blotting); conditions: LPS-induced RAW264.7 macrophages; qPCR and Western blotting; compound 1 at 4 μM compared with dexamethasone
Description: as §1, §2

SMILES | CC50 at 24 h [1] | IC50 [2] | expression of COX-2 [3] | expression of iNOS [4] | NO production inhibitory effect, in words (ranking / comparison with positive control dexamethasone) ([2]; LPS-stimulated RAW264.7 cells)
C=C1C(=O)O[C@H]2[C@H]1[C@@H](OC(=O)CC)C=C(C)[C@]1(O)C[C@H]3O[C@@]3(C)[C@H]21 [Compound 11, Artemvulactone R] | > 15 µM | 1.9 ± 0.4 µM |  |  | 
C=C1C(=O)O[C@H]2[C@H]1[C@@H](OC(=O)CC(C)C)CC(=C)[C@]1(O)CC=C(C)[C@H]21 [Compound 4, Artemvulactone K] | > 20 µM | 3.6 ± 0.1 µM |  |  | 
C=C1C(=O)OC2C1C(OC(=O)CC)CC(C)(OC)C1C(=O)C=C(C)C21 (stereo not drawn) [Compound 10, Artemvulactone Q] | > 10 µM | 2.1 ± 0.1 µM |  |  | 
C=C1C(=O)O[C@H]2[C@H]1[C@@H](OC(=O)/C(C)=C\C)C=C(C)[C@]1(O)CC=C(C)[C@H]21 [Compound 1, Artemvulactone H] | > 10 µM | 1.1 ± 0.1 µM | reduced more expressions of iNOS and COX-2 than the positive drug; also recorded: suppressed | reduced more expressions of iNOS and COX-2 than the positive drug; also recorded: suppressed | most active
C=C1C(=O)O[C@H]2[C@H]1[C@@H](OC(=O)C=C(C)C)CC(=C)[C@]1(O)CC=C(C)[C@H]21 [Compound 14, 1α-hydroxy-8α-senecioyloxy-3(4),10(14),11(13)-trienguai-12,6α-olide] | > 15 µM | 1.4 ± 0.2 µM |  |  | 
C=C1C(=O)O[C@@H]2[C@H]3C(C)=CC(=O)C3=C(C)C[C@H](OC(=O)CC)[C@@H]12 [Compound 9, Artemvulactone P] | > 20 µM | 1.9 ± 0.8 µM |  |  | 
C=C1C(=O)O[C@H]2[C@H]1[C@@H](OC(=O)C(C)C)C=C(C)[C@]1(O)CC=C(C)[C@H]21 [Compound 18, 8-epi-isobutyrylrupicolin] | > 20 µM | 1.1 ± 0.1 µM |  |  | 
C=C1C(=O)O[C@H]2[C@H]1[C@@H](OC(C)=O)CC(C)=C1C[C@H]3O[C@@]3(C)[C@@H]12 [Compound 21, (+)-Arteglasin A] | > 20 µM | 1.2 ± 0.2 µM |  |  | 
C=C1C(=O)O[C@H]2[C@H]1[C@@H](OC(=O)C(C)C)CC(=C)[C@]1(O)C[C@H]3O[C@@]3(C)[C@H]21 [Compound 6, Artemvulactone M] | > 20 µM | 3.1 ± 0.1 µM |  |  | 
C=C1C(=O)O[C@H]2[C@H]1[C@@H](OC(=O)C(C)C)C=C(C)[C@]1(O)C[C@H]3O[C@@]3(C)[C@H]21 [Compound 8, Artemvulactone O] | > 20 µM | 3.2 ± 0.1 µM |  |  | 
C=C1C(=O)O[C@H]2[C@H]1[C@@H](OC(=O)/C(C)=C/C)CC(=C)[C@]1(O)CC=C(C)[C@H]21 [Compound 15, 8-epi-Tiglylrupicolin B] | > 10 µM | 1.2 ± 0.1 µM |  |  | 
C=C1C(=O)O[C@@H]2[C@H]3C(C)=CC(=O)C3=C(C)C[C@H](OC(C)=O)[C@@H]12 [Compound 22, Dehydromatricarin] | > 10 µM | 1.8 ± 0.2 µM |  |  | 
C=C1C(=O)O[C@H]2[C@H]1[C@@H](OC(=O)C(C)C)CC(=C)[C@]1(O)CC=C(C)[C@H]21 [Compound 17, 8-epi-isobutyrylrupicolin B] | > 20 µM | 1.5 ± 0.1 µM |  |  | 
C[C@@H]1C[C@H]2[C@@H]3CCC4=CC(=O)C=C[C@]4(C)[C@@]3(F)[C@@H](O)C[C@]2(C)[C@@]1(O)C(=O)CO [Dexamethasone, reference compound] |  | 4.3 ± 0.3 µM |  |  | 
C=C1C(=O)O[C@H]2[C@H]1[C@@H](OC(=O)C(C)CC)CC(=C)[C@]1(O)CC=C(C)[C@H]21 (stereo partly drawn) [Compound 13, 1α-hydroxy-8α-methylbutyroxy-3(4),10(14),11(13)-trienguai-12,6α-olide] | > 15 µM | 1.5 ± 0.1 µM |  |  | 
C=C1C(=O)O[C@H]2[C@H]1[C@@H](OC(=O)C(C)CC)C=C(C)[C@]1(O)CC=C(C)[C@H]21 (stereo partly drawn) [Compound 2, Artemvulactone I] | > 10 µM | 1.2 ± 0.3 µM |  |  | 
C=C1C(=O)O[C@H]2[C@H]1[C@@H](OC(=O)CC(C)C)C=C(C)[C@]1(O)CC=C(C)[C@H]21 [Compound 3, Artemvulactone J] | > 10 µM | 2.8 ± 0.1 µM |  |  | 
C=C1C(=O)O[C@H]2[C@H]1[C@@H](OC(=O)CC(C)C)CC(=C)[C@]1(O)C[C@H]3O[C@@]3(C)[C@H]21 [Compound 19, 3α,4α-epoxyrupicolin E] | > 25 µM | 1 ± 0.2 µM |  |  | 
C=C1CC(OC(=O)C(C)=CC)C2C(C)C(=O)OC2C2C(C)=CCC12O (stereo not drawn) [Compound 5, Artemvulactone L] | > 100 µM | > 10 µM |  |  | 
C=C1C(=O)O[C@H]2[C@H]1[C@@H](OC(=O)/C(C)=C\C)CC(=C)[C@]1(O)C[C@H]3O[C@@]3(C)[C@H]21 [Compound 16, 8-angeloyloxy-1α-hydroxy-3α, 4α-epoxy-5α, 7αH-10(14), 11(13)-guaiadien-12,6α-olide] | > 10 µM | 1.1 ± 0.2 µM |  |  | 
C=C1C(=O)O[C@@H]2[C@H]3C(C)=CC(=O)C3=C(C)CC[C@@H]12 [Compound 20, dehydroleucodine] | > 70 µM | 1.8 ± 0.1 µM |  |  | 
C=C1C(=O)OC2C1CCC(C)(O)C1(O)C(Cl)C3OC3(C)C21 (stereo not drawn) [Compound 12, Artemvulactone S] | > 40 µM | 2.7 ± 0.5 µM |  |  | 
C=C1C(=O)O[C@H]2[C@H]1[C@@H](OC(=O)/C(C)=C\C)CC(=C)[C@]1(O)CC=C(C)[C@H]21 [Compound 7, Artemvulactone N] | > 20 µM | 2.1 ± 0.6 µM |  |  | 
